Measurements: PubChem BioAssay AID1648 (Sanford-Burnham Center for Chemical Genomics, 2009)
The source made the active and inactive calls. How the calls were made is not given here.

biological target: Serine/threonine-protein kinase mTOR (Homo sapiens) (UniProt P42345); assay: mTOR FRB domain ligand binding – biophysical, NMR (AID 1648); conditions: NMR binding to FRB domain, chemical shift
Sequence (P42345 2015-2114): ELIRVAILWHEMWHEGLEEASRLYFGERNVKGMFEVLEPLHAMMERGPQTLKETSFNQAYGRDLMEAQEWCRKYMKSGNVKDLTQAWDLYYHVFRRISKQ

Row | SMILES | Kd
1 | COC(=O)CC1C(C)(C)C(OC(C)=O)[C@@H]2[C@@H](OC(C)=O)[C@]34O[C@@]2(O)[C@]1(C)C3CC[C@]1(C)C4=CC(=O)O[C@H]1c1ccoc1 (stereo partly specified) | > 4 mM (inactive)
2 | NC(=O)CSCc1ccc(Br)cc1 | > 4 mM (inactive)
3 | NC(=O)CSc1ccccn1 | > 4 mM (inactive)
4 | O=C(Nc1ccccc1F)c1ccncc1 | > 4 mM (inactive)
5 | COc1cccc(NC(=O)c2ocnc2C)c1 | > 4 mM (inactive)
6 | O=C(O)CN1C(=O)c2cccc([N+](=O)[O-])c2C1=O | > 4 mM (inactive)
7 | Clc1ccc(-n2ccnc2)nn1 | > 4 mM (inactive)
8 | O=C(CCc1ccc(O)cc1)c1c(O)cc(O)cc1O | > 4 mM (inactive)
9 | O=P(O)(Cc1ccccc1)c1ccccc1 | > 4 mM (inactive)
10 | CC[C@H]1CN2CCc3cc(OC)c(OC)cc3C2C[C@@H]1CC1NCCc2cc(OC)c(OC)cc21 (stereo partly specified) | > 4 mM (inactive)
11 | COC(=O)Cc1cc(=O)n(-c2ccccc2)[nH]1 | > 4 mM (inactive)
12 | O=C(O)CNc1ncnc2nc[nH]c12 | > 4 mM (inactive)
13 | Nc1ccc2c(c1)N1CCN=C1S2 | > 4 mM (inactive)
14 | CNc1nnc(CSc2nc(C)cc(C)n2)s1 | > 4 mM (inactive)
15 | Nc1ccc(N2CCCCC2)cc1 | > 4 mM (inactive)
16 | COc1cc2c(cc1OC)-c1nnnn1C(C)(C)C2 | > 4 mM (inactive)
17 | O=C1CN(c2ccccc2)CC(=O)N1 | > 4 mM (inactive)
18 | O=C(Nn1cnnc1)c1cc2c(s1)CCCCC2 | > 4 mM (inactive)
19 | O=C1CC(=O)N(Cc2ccco2)C(=S)N1 | > 4 mM (inactive)
20 | CN=C1SC(CC(=O)Nc2ccc(O)cc2)C(=O)N1C (stereo unspecified) | > 4 mM (inactive)
21 | NC(=O)Cc1nc(-c2ccc(F)cc2)cs1 | > 4 mM (inactive)
22 | Cc1ccc(NC(=O)/C=C2\SC(=O)NC2=O)cc1 | > 4 mM (inactive)
23 | CSc1nnc2c(n1)OC(C)=Nc1ccccc1-2 | > 4 mM (inactive)
24 | CCC1(CC)C(=O)N=C(N)NC1=O | > 4 mM (inactive)

Row | SMILES | Kd
25 | O=C(O)CCC(=O)NCc1cccnc1 | > 4 mM (inactive)
26 | O=C(c1cnsn1)N1CCN(c2ccccc2)CC1 | > 4 mM (inactive)
27 | O=C1c2ccc(F)cc2C(=O)N1CO | > 4 mM (inactive)
28 | O=C(Nc1cccnc1)N1CCOCC1 | > 4 mM (inactive)
29 | CCn1nnc(NC(=O)c2ccccc2Br)n1 | > 4 mM (inactive)
30 | OCc1ccc2ncccc2c1 | > 4 mM (inactive)
31 | O=c1cc(-c2ccccc2)oc2c(O)c(O)ccc12 | > 4 mM (inactive)
32 | CCCNC(CC(=O)Nc1cccnc1)C(=O)O (stereo unspecified) | > 4 mM (inactive)
33 | CC1(C)C(=O)C=C[C@@]2(C)C1C=C[C@]1(C)C2CC[C@@]2(C)[C@H](c3ccoc3)OC(=O)C3OC321 (stereo partly specified) | > 4 mM (inactive)
34 | Cc1[nH]ccc2c1[nH]c1cc(=O)ccc12 | > 4 mM (inactive)
35 | CCn1cnc2cc(NCc3ccncc3)ccc21 | > 4 mM (inactive)
36 | CC(=O)Nc1nc(C)c(C(C)=O)s1 | > 4 mM (inactive)
37 | NC(=O)CC1Sc2ccccc2NC1=O (stereo unspecified) | > 4 mM (inactive)
38 | CS(=O)(=O)Nc1cc2c3c(c1)CCN3C(=O)CC2 | > 4 mM (inactive)
39 | COc1cccc(NC(=O)c2nc3ncccn3n2)c1 | > 4 mM (inactive)
40 | O=C(OCc1c(Cl)cccc1Cl)c1cnccn1 | > 4 mM (inactive)
41 | COC(=O)/C(=C1\OC(=O)C(c2ccccc2)C1=O)c1ccccc1 (stereo unspecified) | > 4 mM (inactive)
42 | Cc1nnc(SCc2ccon2)n1-c1ccccc1 | > 4 mM (inactive)
43 | CN(C)c1ccc(/C=C2/NC(=S)NC2=O)cc1 | > 4 mM (inactive)
44 | Cc1c(C(=O)OC(C)C)[nH]c2c1C(=O)CCC2 | > 4 mM (inactive)
45 | O=[n+]1c(CO)c(CO)n([O-])c2ccccc21 | > 4 mM (inactive)
46 | O=c1[nH]c(N2CCOCC2)nc2ccccc12 | > 4 mM (inactive)
47 | CC1CCN(C(=O)c2ccc3c(c2)OCCO3)CC1 | > 4 mM (inactive)
48 | CC(C)Nc1ncnc2c1nnn2C | > 4 mM (inactive)

Row | SMILES | Kd
49 | NC(=O)c1cccc(Cl)n1 | > 4 mM (inactive)
50 | O=c1[nH]cc(CN2CCOCC2)c(=O)[nH]1 | > 4 mM (inactive)
51 | CCCOn1nnnc1-c1ccccc1 | > 4 mM (inactive)
52 | Nc1nc(N)nc(N2C(=O)c3ccccc3C2=O)n1 | > 4 mM (inactive)
53 | O=C(CNC(=O)c1cccs1)NC1=NCCS1 | > 4 mM (inactive)
54 | NC(=O)C1CCN(C(=S)c2cccs2)CC1 | > 4 mM (inactive)
55 | O=c1[nH]c(NCCO)nnc1Cc1ccccc1 | > 4 mM (inactive)
56 | COCc1cc(Cl)nc(-c2csc(C)n2)n1 | > 4 mM (inactive)
57 | CC(C)[C@@H]1CC[C@@H](C)C[C@H]1O | > 4 mM (inactive)
58 | Cc1noc(C)c1C(=O)NC1=NCCS1 | > 4 mM (inactive)
59 | CC(=O)Oc1ccc2c(c1)c(C(C)=O)c(C)n2C | > 4 mM (inactive)
60 | COc1ccc(-c2c(OC)c3c(OC)c4c(cc3oc2=O)OC(C)(C)C=C4)cc1 | > 4 mM (inactive)
61 | CC(C)c1c(O)ccc2c1CCC1C(C)(C)CCC[C@]21C (stereo partly specified) | > 4 mM (inactive)
62 | Cc1nc(-c2ccc(CO)s2)cs1 | > 4 mM (inactive)
63 | CC(C)(C)P(=O)(O)c1ccccc1 | > 4 mM (inactive)
64 | Cc1cc(=O)n2[nH]cnc2n1 | > 4 mM (inactive)
65 | O=C(O)Cn1nc(-c2ccccc2)c2ccccc2c1=O | > 4 mM (inactive)
66 | CN1C(=O)/C(=C/c2ccccc2O)NC1=S | > 4 mM (inactive)
67 | O=C(O)Cc1noc2ccccc12 | > 4 mM (inactive)
68 | C[C@@H]1OC(O[C@H]2C(O[C@H]3CC[C@@]4(C)C(CC[C@]5(C)C4CC=C4C6CC(C)(C)CC[C@]6(C(=O)O)CC[C@]45C)[C@]3(C)CO)OC[C@H](O)[C@@H]2O)[C@H](O)[C@H](O)[C@H]1O (stereo partly specified) | > 4 mM (inactive)
69 | CCOC(=O)CSCC(=O)Nc1nccs1 | > 4 mM (inactive)
70 | CC1(C)NCCN2C(=O)CSC21 (stereo unspecified) | > 4 mM (inactive)
71 | CC(=O)Oc1c2c(c3c(c1CC=C(C)C)O[C@]14C(=C[C@@H]5CC1C(C)(C)OC4(C/C=C(\C)C(=O)O)C5=O)C3=O)OC(C)(CCC=C(C)C)C=C2 (stereo partly specified) | > 4 mM (inactive)
72 | Cc1nc(SCC#N)c2c3c(sc2n1)CCC3 | > 4 mM (inactive)

Row | SMILES | Kd
73 | O=C(Nc1ccon1)c1sc2cc(F)ccc2c1Cl | > 4 mM (inactive)
74 | Cc1onc(-c2c(F)cccc2Cl)c1C(N)=O | > 4 mM (inactive)
75 | Cc1cc(C(=O)N2CCCCCC2)cs1 | > 4 mM (inactive)
76 | C=CCCCCCCCCCCCC(O)CC(O)CO (stereo unspecified) (tested in a mixture with another compound) | > 4 mM (inactive)
77 | O=C(O)C1CSC(c2ccco2)N1 (stereo unspecified) | > 4 mM (inactive)
78 | NC(=O)c1ccc(NC(=O)c2cccnc2)cc1 | > 4 mM (inactive)
79 | CC1(C)CC(NC(=O)/C=C/C(=O)O)CC(C)(C)N1 | > 4 mM (inactive)
80 | COc1ccc(NC2=NCC(C)S2)cc1 (stereo unspecified) | > 4 mM (inactive)
81 | O=c1c(O)c(-c2ccccc2)oc2ccccc12 | > 4 mM (inactive)
82 | CC12CCC(O)CC1CCC1C2[C@H](O)CC2(C)C(C3=CC(=O)OC3)CCC12O (stereo partly specified) | > 4 mM (inactive)
83 | O=C(O)Cc1csc(-c2ccccc2)n1 | > 4 mM (inactive)
84 | Cc1cc(C(=O)Nc2cccnc2)cs1 | > 4 mM (inactive)
85 | COc1ccc2c(c1OC)OC[C@@H](c1ccc(OC)c(OC)c1OC)C2 | > 4 mM (inactive)
86 | CCNC(=S)N1CCC(C(N)=O)CC1 | > 4 mM (inactive)
87 | O=C(NCCO)c1cc2ccccc2cc1O | > 4 mM (inactive)
88 | CCC1C(=O)OCC1Cc1cncn1C (stereo unspecified) | > 4 mM (inactive)
89 | O=C1CCCC(=O)N1c1ccc(O)cc1 | > 4 mM (inactive)
90 | COC(=O)c1cccc(Cn2nnc3ccccc3c2=O)c1 | > 4 mM (inactive)
91 | c1ccc(-c2csc(Nc3cccnc3)n2)nc1 | > 4 mM (inactive)
92 | Cc1ccc(C(=O)N2CCC(C(N)=O)CC2)cc1C | > 4 mM (inactive)
93 | O=C(O)c1ccc(-n2cccn2)cc1 | > 4 mM (inactive)
94 | CC(=O)O[C@@H]1CC2C(C)(C)C(=O)C=C[C@]2(C)C2CC[C@@]3(C)[C@H](c4ccoc4)OC(=O)[C@H]4O[C@]43[C@@]21C (stereo partly specified) | > 4 mM (inactive)
95 | CC(C)C(C)/C=C/C(C)C1CCC2C3=CC=C4CC(O)CCC4(C)C3CCC21C (stereo unspecified) | > 4 mM (inactive)
96 | O=C1CC(C(=O)O)c2ccccc21 (stereo unspecified) | > 4 mM (inactive)

Row | SMILES | Kd
97 | COC(=O)c1[nH]c2ccccc2c1C(=O)OC | > 4 mM (inactive)
98 | Cc1ccc(C(=O)Nn2cnnc2)s1 | > 4 mM (inactive)
99 | Nc1ncnc(NCCCO)c1[N+](=O)[O-] | > 4 mM (inactive)
100 | Cc1ccc(/C=C2/C(=O)N=C(N)N2C)s1 | > 4 mM (inactive)
101 | O=c1[nH]c2sc3c(c2c2nncn12)CCCC3 | > 4 mM (inactive)
102 | COc1ccc(-c2cc(=O)c3c(OC(C)=O)cc(OC(C)=O)cc3o2)cc1 | > 4 mM (inactive)
103 | Cc1cc(=O)[nH]c(N2CCCCC2)n1 | > 4 mM (inactive)
104 | NC(=O)c1cc(N)ccc1N1CCCCC1 | > 4 mM (inactive)
105 | COc1cccc(C(=O)N2CCOCC2)c1 | > 4 mM (inactive)
106 | CC1=NN(C(N)=S)C(C)(C)C1 | > 4 mM (inactive)
107 | COC(=O)C1=CO[C@@H](O[C@@H]2O[C@H](CO)[C@@H](O)[C@H](O)[C@H]2O)[C@@H]2[C@@H](C)[C@@H](O)C[C@H]12 | > 4 mM (inactive)
108 | COC(=O)C[C@H]1C(C)(C)C(OC(C)=O)[C@]2(O)C=C3C(CC[C@]4(C)C3CC(=O)O[C@H]4c3ccoc3)C1(C)C2=O (stereo partly specified) | > 4 mM (inactive)
109 | C=C[C@@](C)(O)CCC1C(=C)C[C@H](O)C2C(C)(C)CCCC12C (stereo partly specified) | > 4 mM (inactive)
110 | O=C(O)c1ccc2c(c1)OCCCO2 | > 4 mM (inactive)
111 | CS(=O)(=O)N1CCC(C(=O)NC2CCCC2)CC1 | > 4 mM (inactive)
112 | O=C1c2ccncc2C(=O)N1CNc1ccccn1 | > 4 mM (inactive)
113 | CCCCCC1C(=O)CCC1CC(=O)OC (stereo unspecified) | > 4 mM (inactive)
114 | CN(C)CCCN1CNC(=S)NC1 | > 4 mM (inactive)
115 | COc1ccc([C@@H]2CC(=O)c3c(O)cc(O)cc3O2)cc1O | > 4 mM (inactive)
116 | CCOCC(=O)NCc1n[nH]c(=O)c2ccccc12 | > 4 mM (inactive)
